Results published in patent US12077503B2, “Substituted cyclic amides and their use as herbicides” (FMC CORPORATION, priority 2015, dated 2024).
Like-named read-outs stand apart in the source and are kept apart here.

What was measured:
Format in all cases: in vivo
[1] = system: barnyardgrass (Echinochloa crus-galli); assay: Test B flooded paddy test; settings: Echinochloa crus-galli, 250 g ai/ha, Flood; 0 to 100 scale where 0 is no effect and 100 is complete control; read-out: Barnyardgrass plant response rating
Procedure, shortened: (§1)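 Visual ratings (0 none to 100 complete control) are relative to untreated plants, taken 13–15 d after treatment in a greenhouse. Test material went straight into floodwater standing 3 cm above the soil, kept constant, on plants at the 2-leaf stage.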

rice (Oryra sativa) = assay: Test B flooded paddy test; settings: Oryza sativa, 250 g ai/ha, Flood; 0 to 100 scale where 0 is no effect and 100 is complete control; read-out: Rice plant response rating
Procedure, shortened: as §1

[2] = system: ducksalad (Heteranthera limosa); assay: Test B flooded paddy test; settings: Heteranthera limosa, 250 g ai/ha, Flood; 0 to 100 scale where 0 is no effect and 100 is complete control; read-out: Ducksalad plant response rating
Procedure, shortened: as §1

[3] = system: sedge, umbrella (small-flower umbrella sedge, Cyperus difformis); assay: Test B flooded paddy test; settings: Cyperus difformis, 250 g ai/ha, Flood; 0 to 100 scale where 0 is no effect and 100 is complete control; read-out: Sedge, Umbrella plant response rating
Procedure, shortened: as §1

Kochia (Kochia scoparia) [4] = assay: Test A postemergence; settings: Bassia scoparia, post-emergence, 240 h; for pest or weed control at 125 g/ha: 125 g ai/ha, postemergence, visual injury on 0 to 100 scale (0 no effect, 100 complete control), approx. 10 d, read-out: Kochia plant response rating; for pest or weed control at 31 g/ha: Postemergence, 31 g ai/ha, visual injury after approx. 10 d, 0 to 100 scale, 0 no effect, 100 complete control, read-out: Plant response rating, Kochia
Procedure, shortened: (§2)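 Ratings of 0 (no effect) to 100 (complete control) come from visual comparison with untreated controls roughly 10 d after treatment. Test chemicals, formulated in a non-phytotoxic solvent mixture with surfactant, were applied either as a preemergence directed soil spray on seeded soil or postemergence to one- to two-leaf plants 2 to 10 cm tall.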

[5] = system: pigweed (Amaranthus retroflexus); assay: Test A postemergence; settings: Amaranthus retroflexus, post-emergence, 240 h; for pest or weed control at 125 g/ha: 125 g ai/ha, postemergence; for pest or weed control at 31 g/ha: Postemergence, 31 g ai/ha, visual injury after approx. 10 d, 0 to 100 scale, 0 no effect, 100 complete control, read-out: Plant response rating, Pigweed
Procedure, shortened: as §2

[6] = system: Galium (catchweed bedstraw, Galium aparine); assay: Test A postemergence; settings: Galium, post-emergence, 240 h; for pest or weed control at 125 g/ha: 125 g ai/ha, postemergence, visual injury on 0 to 100 scale (0 no effect, 100 complete control), approx. 10 d, read-out: Galium plant response rating; for pest or weed control at 31 g/ha: Postemergence, 31 g ai/ha, visual injury after approx. 10 d, 0 to 100 scale, 0 no effect, 100 complete control, read-out: Plant response rating, Galium
Procedure, shortened: as §2

[7] = system: barnyardgrass (Echinochloa crus-galli); assay: Test A postemergence; settings: Echinochloa crus-galli, post-emergence, 240 h; for pest or weed control at 125 g/ha: 125 g ai/ha, postemergence, visual injury on 0 to 100 scale (0 no effect, 100 complete control), approx. 10 d, read-out: Barnyardgrass plant response rating; for pest or weed control at 31 g/ha: Postemergence, 31 g ai/ha, visual injury after approx. 10 d, 0 to 100 scale, 0 no effect, 100 complete control, read-out: Plant response rating, Barnyardgrass
Procedure, shortened: as §2

corn (Zea mays) = assay: Test A postemergence; settings: Zea mays, post-emergence, 240 h; for plant injury at 125 g/ha: 125 g ai/ha, postemergence, visual injury on 0 to 100 scale (0 no effect, 100 complete control), approx. 10 d, read-out: Corn plant response rating; for Corn plant response rating (crop injury, 0 = no effect, 100 = complete kill) at 31 g/ha: Postemergence, 31 g ai/ha, visual injury after approx. 10 d, 0 to 100 scale, 100 complete control
Procedure, shortened: as §2

[8] = system: ragweed (common ragweed, Ambrosia elatior); assay: Test A postemergence; settings: Ambrosia artemisiifolia, post-emergence, 240 h; for pest or weed control at 125 g/ha: 125 g ai/ha, postemergence; for pest or weed control at 31 g/ha: Postemergence, 31 g ai/ha, visual injury after approx. 10 d, 0 to 100 scale, 0 no effect, 100 complete control, read-out: Plant response rating, Ragweed
Procedure, shortened: as §2

[9] = system: blackgrass (Alopecurus myosuroides); assay: Test A postemergence; settings: Alopecurus myosuroides, post-emergence, 240 h; for pest or weed control at 125 g/ha: 125 g ai/ha, postemergence, visual injury on 0 to 100 scale (0 no effect, 100 complete control), approx. 10 d, read-out: Blackgrass plant response rating; for pest or weed control at 31 g/ha: Postemergence, 31 g ai/ha, visual injury after approx. 10 d, 0 to 100 scale, 0 no effect, 100 complete control, read-out: Plant response rating, Blackgrass
Procedure, shortened: as §2

[10] = system: ryegrass, Italian (Italian ryegrass, Lolium multiflorum); assay: Test A postemergence; settings: Lolium multiflorum, post-emergence, 240 h; for pest or weed control at 125 g/ha: 125 g ai/ha, postemergence; for pest or weed control at 31 g/ha: Postemergence, 31 g ai/ha, visual injury after approx. 10 d, 0 to 100 scale, 0 no effect, 100 complete control, read-out: Plant response rating, Ryegrass, Italian
Procedure, shortened: as §2

[11] = system: wheat (Triticum aestivum); assay: Test A postemergence; settings: Triticum aestivum, post-emergence, 240 h; for plant injury at 125 g/ha: 125 g ai/ha, postemergence; for plant injury at 31 g/ha: Postemergence, 31 g ai/ha, visual injury after approx. 10 d, 0 to 100 scale, 0 no effect, 100 complete control, read-out: Plant response rating, Wheat
Procedure, shortened: as §2

[12] = system: giant foxtail (Setaria faberii); assay: Test A postemergence; settings: Setaria faberi, post-emergence, 240 h; for pest or weed control at 125 g/ha: 125 g ai/ha, postemergence, visual injury on 0 to 100 scale (0 no effect, 100 complete control), approx. 10 d, read-out: Foxtail, Giant plant response rating; for pest or weed control at 31 g/ha: Postemergence, 31 g ai/ha, visual injury after approx. 10 d, 0 to 100 scale, 0 no effect, 100 complete control, read-out: Plant response rating, Foxtail, Giant
Procedure, shortened: as §2

Kochia (Kochia scoparia) [13] = assay: Test A preemergence; settings: Bassia scoparia, pre-emergence, 240 h, 0 to 100 scale where 0 is no effect and 100 is complete control, read-out: Kochia plant response rating; for pest or weed control at 31 g/ha: 31 g ai/ha, Preemergence; for pest or weed control at 125 g/ha: 125 g ai/ha, preemergence, approx. 10 d
Procedure, shortened: as §2

[14] = system: pigweed (Amaranthus retroflexus); assay: Test A preemergence; settings: Amaranthus retroflexus, pre-emergence, 240 h, 0 to 100 scale where 0 is no effect and 100 is complete control, read-out: Pigweed plant response rating; for pest or weed control at 31 g/ha: 31 g ai/ha, Preemergence; for pest or weed control at 125 g/ha: 125 g ai/ha, preemergence, approx. 10 d
[15] = system: barnyardgrass (Echinochloa crus-galli); assay: Test A preemergence; settings: Echinochloa crus-galli, pre-emergence, 240 h, 0 to 100 scale where 0 is no effect and 100 is complete control, read-out: Barnyardgrass plant response rating; for pest or weed control at 31 g/ha: 31 g ai/ha, Preemergence; for pest or weed control at 125 g/ha: 125 g ai/ha, preemergence, approx. 10 d
Procedure, shortened: as §2

[16] = system: ragweed (common ragweed, Ambrosia elatior); assay: Test A preemergence; settings: Ambrosia artemisiifolia, pre-emergence, 240 h, 0 to 100 scale where 0 is no effect and 100 is complete control, read-out: Ragweed plant response rating; for pest or weed control at 31 g/ha: 31 g ai/ha, Preemergence; for pest or weed control at 125 g/ha: 125 g ai/ha, preemergence, approx. 10 d
Procedure, shortened: as §2

[17] = system: ryegrass, Italian (Italian ryegrass, Lolium multiflorum); assay: Test A preemergence; settings: Lolium multiflorum, pre-emergence, 240 h, 0 to 100 scale where 0 is no effect and 100 is complete control, read-out: Ryegrass, Italian plant response rating; for pest or weed control at 31 g/ha: 31 g ai/ha, Preemergence; for pest or weed control at 125 g/ha: 125 g ai/ha, preemergence, approx. 10 d
Procedure, shortened: as §2

[18] = system: giant foxtail (Setaria faberii); assay: Test A preemergence; settings: Setaria faberi, pre-emergence, 240 h, 0 to 100 scale where 0 is no effect and 100 is complete control, read-out: Foxtail, Giant plant response rating; for pest or weed control at 31 g/ha: 31 g ai/ha, Preemergence; for pest or weed control at 125 g/ha: 125 g ai/ha, preemergence, approx. 10 d
Procedure, shortened: as §2

Row | Structure (SMILES) | pest or weed control at 250 g/ha [1] | pest or weed control at 250 g/ha (rice (Oryra sativa)) | pest or weed control at 250 g/ha [2] | pest or weed control at 250 g/ha [3] | pest or weed control at 125 g/ha (Kochia (Kochia scoparia) [4]) | pest or weed control at 31 g/ha (Kochia (Kochia scoparia) [4]) | pest or weed control at 31 g/ha [5] | pest or weed control at 125 g/ha [6] | pest or weed control at 31 g/ha [6] | pest or weed control at 125 g/ha [7] | pest or weed control at 31 g/ha [7] | plant injury at 125 g/ha (corn (Zea mays)) | Corn plant response rating (crop injury, 0 = no effect, 100 = complete kill) at 31 g/ha (corn (Zea mays)) | pest or weed control at 31 g/ha [8] | pest or weed control at 125 g/ha [9] | pest or weed control at 31 g/ha [9] | pest or weed control at 31 g/ha [10] | plant injury at 31 g/ha [11] | pest or weed control at 125 g/ha [12] | pest or weed control at 31 g/ha [12] | other results
1 | O=C1NC[C@H](c2ccc(C(F)(F)F)cn2)[C@H]1C(=O)Nc1cccc(F)c1F [Compound 1104] | 40% | 20% | 100% | 0% | 0% | 0% | 0% | 0% | 0% | 30% | 0% | 0% | 0% | 0% | 0% | 0% | 0% | 0% | 0% | 0% | pest or weed control at 125 g/ha ([5]; visual injury on 0 to 100 scale (0 no effect, 100 complete control), approx. 10 d, read-out: Pigweed plant response rating): 0%; pest or weed control at 125 g/ha ([8]; visual injury on 0 to 100 scale (0 no effect, 100 complete control), approx. 10 d, read-out: Ragweed plant response rating): 0%; pest or weed control at 125 g/ha ([10]; visual injury on 0 to 100 scale (0 no effect, 100 complete control), approx. 10 d, read-out: Ryegrass, Italian plant response rating): 0%; plant injury at 125 g/ha ([11]; visual injury on 0 to 100 scale (0 no effect, 100 complete control), approx. 10 d, read-out: Wheat plant response rating): 0%; pest or weed control at 31 g/ha (Kochia (Kochia scoparia) [13]): 0%; pest or weed control at 125 g/ha (Kochia (Kochia scoparia) [13]): 0%; pest or weed control at 31 g/ha [14]: 0%; pest or weed control at 125 g/ha [14]: 0%; pest or weed control at 31 g/ha [15]: 0%; pest or weed control at 125 g/ha [15]: 50%; pest or weed control at 31 g/ha [16]: 0%; pest or weed control at 125 g/ha [16]: 0%; pest or weed control at 31 g/ha [17]: 0%; pest or weed control at 125 g/ha [17]: 0%; pest or weed control at 31 g/ha [18]: 0%; pest or weed control at 125 g/ha [18]: 70%
2 | CN1C[C@H](c2ccc(F)c(Oc3ccccc3)c2)[C@@H](C(=O)Nc2ccccc2F)C1=O [Compound 1141] | 50% | 0% | 90% | 0% | 30% | 0% | 30% | 90% | 60% | 90% | 60% | 20% | 0% | 0% | 30% | 0% | 20% | 0% | 90% | 60% | pest or weed control at 125 g/ha ([5]; visual injury vs untreated controls after approx. 10 d, 0 = no effect, 100 = complete control, read-out: Pigweed plant response rating (0 to 100 scale)): 50%; pest or weed control at 125 g/ha ([8]; visual injury vs untreated controls after approx. 10 d, 0 = no effect, 100 = complete control, read-out: Ragweed plant response rating (0 to 100 scale)): 30%; pest or weed control at 125 g/ha ([10]; visual injury vs untreated controls after approx. 10 d, 0 = no effect, 100 = complete control, read-out: Ryegrass, Italian plant response rating (0 to 100 scale)): 50%; plant injury at 125 g/ha ([11]; visual injury vs untreated controls after approx. 10 d, 0 = no effect, 100 = complete control, read-out: Wheat plant response rating (0 to 100 scale)): 20%; pest or weed control at 31 g/ha (Kochia (Kochia scoparia) [13]): 0%; pest or weed control at 125 g/ha (Kochia (Kochia scoparia) [13]): 0%; pest or weed control at 31 g/ha [14]: 30%; pest or weed control at 125 g/ha [14]: 60%; pest or weed control at 31 g/ha [15]: 30%; pest or weed control at 125 g/ha [15]: 80%; pest or weed control at 31 g/ha [16]: 0%; pest or weed control at 125 g/ha [16]: 0%; pest or weed control at 31 g/ha [17]: 0%; pest or weed control at 125 g/ha [17]: 40%; pest or weed control at 31 g/ha [18]: 80%; pest or weed control at 125 g/ha [18]: 90%
